Data set [1] relates to NF-κB. In words: NF-κB-dependent luciferase reporter gene assay, HeLa κB-transformed cells, TPA stimulated. It counts as cell-based. Conditions: 8 h treatment, TPA 25 ng/ml 2 h after exposure, read-out: NF-κB, IC50 (concentration at which the compound halved the NF-κB activity). The method, then:
Method: HeLa cell clone 13B, stably transfected with a luciferase reporter plasmid controlled by the human hsp70 promoter, and HeLa κB-transformed cells, stably transfected with a luciferase reporter plasmid controlled by a synthetic NF-κB-STM construct, were maintained in DMEM medium supplemented with 10% FBS, L-glutamine (2 mM) and G418 (250 μg/ml) at 37° C. in a 5% CO2 humidified atmosphere.
Cells were seeded at a density of 4×10^4 cells/well in 96-well plates. After 18-20 h, the medium was removed and cells were treated for 8 h with the test compounds (100 μl) at the appropriate dilutions in serum-free medium. For the NF-κB-dependent reporter gene assay, cells were stimulated with TPA (25 ng/ml) 2 h after exposure to the compounds.
After incubation, the medium was removed and cells were lysed in 10 μl of lysis buffer. The luciferase activity was determined by adding 100 μl of substrate and measuring the release of light using a Victor 1420 microplate reader (Wallac, Finland).
The fragment Kpn I-BamH I from the pGL3 basic vector containing the luciferase gene (PROMEGA) was inserted in the pcDNA3 vector (INVITROGEN) digested with Bgl II-KpnI. (This digestion removes the CMV-promoter from pcDNA3.) The resulting new vector was digested with Kpn I-Hind III and a promoter containing a ‘5xNF-κB binding sites—TATA box’ sequence was inserted upstream of the luciferase gene. This vector has been named STM.
To obtain stable HeLa cell lines expressing the luciferase gene under the control of NF-κB, HeLa cells were transfected (using lipofectamine plus GIBCO) with the STM-Pvu I linearized vector, and selected for 20 days with G418 (800 μg/ml). After selection, the resistant HeLa cell pool was controlled (in quadruplicate samples) for luciferase activity after stimulation with TNFα, IL-1 and TPA.
The AC200/μM for HSF is the concentration at which the tested compound doubled the HSF activity in this assay. The IC50/μM for NF-κB is the concentration at which the tested compound halved the NF-κB activity in this assay.

Data set [2] deals with uninfected 37RC cells. Particulars: monkey.
Data set [3] concerns 37RC cells. The data set is described as follows: in vitro. It is filed as cell-based. Conditions: 24 h treatment, read-out: LC50 (50% lethal dose/concentration), Neutral Red. The method, then:
Cell viability was determined using the Neutral Red assay. 37RC cells were seeded at density of 6×10^4 cells/well in 24-well plates and incubated for 24 h. Confluent 37RC monolayers were treated with the test compounds at different dilutions for 24 h at 37° C. After incubation, the medium was removed and the cells were incubated with RPMI medium containing 40 μg/ml Neutral Red dye (500 μl/well). After 2 h at 37° C., the monolayers were washed with phosphate-buffered saline (PBS) and then with a solution containing 1% CaCl2 and 0.5% formaldehyde. After washing, a solution containing 1% acetic acid/50% ethanol was added to the monolayers (250 μl/well). After 10 min at room temperature, the absorbance was determined with a microplate reader (Victor 1420, Wallac) at 540 nm.

For data set [4], the system named is HSF1. Particulars: concentration of 125-500 μM; cited from earlier work.
Data set [5] concerns NF-κB. Particulars: same concentration (125-500 μM); cited from earlier work.
In data set [6] the test system is Sendai virus. In words: Sendai virus replication in 37RC cells (virus yield by HAU titration). It is filed as cell-based. Particulars: Respirovirus muris, 5 HAU/10^5 cells, virus yield at 24 hours after infection, read-out: ID50 (50% inhibitory dose/concentration), Sendai virus yield.
For data set [7] the following is noted: doses from 30 μg/kg/min; cited from earlier work.

Consider `CC(C)(C)C(=O)O[C@H]1[C@H](Sc2ccc3ccccc3c2)CC(=O)C1(C)C` (stereo in doubt) [CTM-192, 2,2-dimethylpropionic acid (1R,5R)-2,2-dimethyl-5-(naphthalen-2-ylsulfanyl)-3-oxocyclopentyl ester], for which the IC50 in data set [1] amounted to 28 µM. For the same compound, in data set [2], the “TD100 (dose or concentration at which the compound was 100% toxic to uninfected cells)” value worked out at 50 µM. For the same compound, in data set [3], the CC50 was 22 µM.
With `O=C1C=CCC1` [CTC-1, cyclopent-2-en-1-one, reference compound], the “HSF1 activation, result in words” value in data set [4] is recorded as “able to activate HSF1”. Further, the “TD100 (dose or concentration at which the compound was 100% toxic to uninfected cells)” value in data set [2] was greater than 500 µM. For the same compound, in data set [5], the “block of NF-κB activation by chemical or physiological inducers, result in words” value is given as “able to block NF-κB activation”. Moreover, in data set [6], the IC50 stood at 90 µM.
Turning to `CCCCC[C@H](O)/C=C/[C@H]1[C@H](O)CC(=O)[C@@H]1CCCCCCC(=O)O` [Prostaglandin E1], in data set [7], the “effect on blood pressure” value is on record as “dose-dependant falls in blood pressure”.
